Reference: patent US20100331305A1, “OXO-HETEROCYCLE FUSED PYRIMIDINE COMPOUNDS, COMPOSITIONS AND METHODS OF USE” (Genentech, Inc., priority 2009, published 2010)
“And” between values parts separate entries of the source, which are not always exact repeats. Equal values may be shown once.

Experiments:
[1] = biological target: mTOR enzyme (mTOR(1360-2549)+GBL) (Homo sapiens, UniProt P42345); assay: In vitro mTOR kinase assay (TR-FRET); format: biochemical; conditions: 0.25 nM mTOR+GBL, 8 uM ATP; values tied to compounds by order of Table 1; 'x or y' = two alternative values for separated diastereomers of unassigned stereochemistry; read-out: activity level (Ki) in the mTOR kinase assay
How it was run: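 Compounds were tested in 10-point dose curves from 10 uM top final concentration. The reaction was stopped with 2 nM Tb-anti-p4E-BP1 (T37/T46) antibody plus 10 mM EDTA for 30 minutes, and phospho-4E-BP1 was detected by TR-FRET. Ki apparent was fitted with the Morrison ATP-competitive tight-binding equation.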

[2] = system: PC3 cells; assay: In vitro cell proliferation assay; format: cell-based, human; conditions: values tied to compounds by order of Table 1
How it was run: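 PC3 (or MDAMB361.1) cells, ~10^3/well, settled overnight, then exposed to compound for 3 days; viability read by CellTiter-Glo luminescence (RLU). Alternatively, 4-day compound exposure followed by Alamar Blue for 6 h, fluorescence 544/590 nm; EC50 from sigmoidal dose-response fit.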

[3] = Homo sapiens, PC-3, with PC3 cells

Chain of mTOR enzyme (mTOR(1360-2549)+GBL) (P42345 1360-2549, species assumed): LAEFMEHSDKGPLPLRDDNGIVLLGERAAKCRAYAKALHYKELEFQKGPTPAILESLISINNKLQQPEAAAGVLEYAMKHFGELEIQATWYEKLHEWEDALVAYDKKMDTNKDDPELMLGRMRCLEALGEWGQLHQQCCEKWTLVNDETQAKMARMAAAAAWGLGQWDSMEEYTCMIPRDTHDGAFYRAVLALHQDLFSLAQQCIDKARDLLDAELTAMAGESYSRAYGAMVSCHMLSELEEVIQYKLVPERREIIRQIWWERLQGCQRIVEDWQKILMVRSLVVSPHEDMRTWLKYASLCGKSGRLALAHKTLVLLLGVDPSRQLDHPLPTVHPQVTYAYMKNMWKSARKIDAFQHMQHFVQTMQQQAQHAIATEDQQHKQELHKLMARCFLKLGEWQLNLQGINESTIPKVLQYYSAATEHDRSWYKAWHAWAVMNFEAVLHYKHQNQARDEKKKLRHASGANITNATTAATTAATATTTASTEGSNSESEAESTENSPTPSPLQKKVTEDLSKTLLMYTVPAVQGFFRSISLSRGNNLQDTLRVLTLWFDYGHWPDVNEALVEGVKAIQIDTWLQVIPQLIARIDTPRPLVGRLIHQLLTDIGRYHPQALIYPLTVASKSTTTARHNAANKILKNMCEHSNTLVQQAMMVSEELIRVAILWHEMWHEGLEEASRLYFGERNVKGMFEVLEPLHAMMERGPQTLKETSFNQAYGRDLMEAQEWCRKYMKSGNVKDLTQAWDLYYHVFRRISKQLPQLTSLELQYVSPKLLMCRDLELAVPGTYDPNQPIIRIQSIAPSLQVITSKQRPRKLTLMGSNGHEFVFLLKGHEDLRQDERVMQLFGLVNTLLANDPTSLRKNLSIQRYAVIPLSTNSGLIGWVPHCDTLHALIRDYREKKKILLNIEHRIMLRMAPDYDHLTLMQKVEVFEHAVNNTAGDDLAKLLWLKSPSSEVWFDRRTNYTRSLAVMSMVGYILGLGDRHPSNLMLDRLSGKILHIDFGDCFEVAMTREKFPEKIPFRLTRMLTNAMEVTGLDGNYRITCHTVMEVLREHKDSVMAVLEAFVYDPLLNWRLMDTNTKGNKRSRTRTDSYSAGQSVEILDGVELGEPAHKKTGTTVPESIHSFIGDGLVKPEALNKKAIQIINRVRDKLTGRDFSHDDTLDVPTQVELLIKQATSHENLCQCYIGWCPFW
Chain of mTOR enzyme (mTOR(1360-2549)+GBL) (Q9BVC4 whole entry partner, species assumed): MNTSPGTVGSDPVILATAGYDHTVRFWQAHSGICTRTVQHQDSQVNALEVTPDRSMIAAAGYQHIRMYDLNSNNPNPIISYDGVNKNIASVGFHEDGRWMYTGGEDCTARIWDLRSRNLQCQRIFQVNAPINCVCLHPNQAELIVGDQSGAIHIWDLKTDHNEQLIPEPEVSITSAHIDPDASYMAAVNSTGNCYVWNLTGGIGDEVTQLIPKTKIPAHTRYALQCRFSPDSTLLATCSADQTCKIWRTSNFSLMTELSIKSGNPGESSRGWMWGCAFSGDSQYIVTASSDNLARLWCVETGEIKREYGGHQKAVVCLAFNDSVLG

C=CC[C@]1(C)OCc2c(N3CCOCC3)nc(-c3ccc(NC(=O)NCC)cc3)nc21 [Example 73 eb (S), (S)-1-(4-(7-allyl-7-methyl-4-morpholino-5,7-dihydrofuro[3,4-d]pyrimidin-2-yl)phenyl)-3-ethylurea]
Ki [1]: 2 nM
EC50 [2, 3]: 37.6 nM

CCC[C@@]1(C)OCc2c(N3CCOCC3)nc(-c3ccc(NC(=O)NCC)cc3)nc21 [Example 73 ef (R), (R)-1-ethyl-3-(4-(7-methyl-4-morpholino-7-propyl-5,7-dihydrofuro[3,4-d]pyrimidin-2-yl)phenyl)urea]
Ki [1]: 4 nM
EC50 [2, 3]: 92 nM

CCC[C@]1(C)OCc2c(N3CCOCC3)nc(-c3ccc(NC(=O)NCC)cc3)nc21 [Example 73 ef (S), (S)-1-ethyl-3-(4-(7-methyl-4-morpholino-7-propyl-5,7-dihydrofuro[3,4-d]pyrimidin-2-yl)phenyl)urea]
Ki [1]: 2 nM
EC50 [2, 3]: 35 nM

CCNC(=O)Nc1ccc(-c2nc(N3CCOC[C@@H]3C)c3c(n2)[C@](C)(CCN2CCOCC2)OC3)cc1 [Example 76 eo (S), 1-ethyl-3-(4-((S)-7-methyl-4-((S)-3-methylmorpholino)-7-(2-morpholinoethyl)-5,7-dihydrofuro[3,4-d]pyrimidin-2-yl)phenyl)urea]
Ki [1]: 293 nM
EC50 [2, 3]: 45 nM

CCNC(=O)Nc1ccc(-c2nc(N3CCOC[C@@H]3C)c3c(n2)[C@@](C)(CCN(C)CC)OC3)cc1 [Example 78 eq (R), 1-ethyl-3-(4-((R)-7-(2-(ethyl(methyl)amino)ethyl)-7-methyl-4-((S)-3-methylmorpholino)-5,7-dihydrofuro[3,4-d]pyrimidin-2-yl)phenyl)urea]
Ki [1]: 47 nM
EC50 ([2]; with PC3 cells): 161 nM

CCNC(=O)Nc1ccc(-c2nc(N3CCOC[C@@H]3C)c3c(n2)[C@](C)(CCN(C)CC)OC3)cc1 [Example 78 eq (S), 1-ethyl-3-(4-((S)-7-(2-(ethyl(methyl)amino)ethyl)-7-methyl-4-((S)-3-methylmorpholino)-5,7-dihydrofuro[3,4-d]pyrimidin-2-yl)phenyl)urea]
Ki [1]: 21 nM
EC50 ([2]; with PC3 cells): 1300 nM

CCNC(=O)Nc1ccc(-c2nc(N3CCOC[C@@H]3C)c3c(n2)[C@](C)(CCN2CCC2)OC3)cc1 [Example 79 er (S), 1-(4-((S)-7-(2-(azetidin-1-yl)ethyl)-7-methyl-4-((S)-3-methylmorpholino)-5,7-dihydrofuro[3,4-d]pyrimidin-2-yl)phenyl)-3-ethylurea]
Ki [1]: 31 nM
EC50 [2, 3]: 774 nM

CCNC(=O)Nc1ccc(-c2nc(N3CCOC[C@@H]3C)c3c(n2)[C@@](C)(CCn2ccnc2C)OC3)cc1 [Example 81 et (R), 1-ethyl-3-(4-((R)-7-methyl-7-(2-(2-methyl-1H-imidazol-1-yl)ethyl)-4-((S)-3-methylmorpholino)-5,7-dihydrofuro[3,4-d]pyrimidin-2-yl)phenyl)urea]
Ki [1]: 67 nM
EC50 [2, 3]: 274 nM

CCCC1(C)OCc2c(N3CCOC[C@@H]3C)nc(-c3ccc(NC(=O)NCC)cc3)nc21 (stereo partly drawn) [Example 83, 1-ethyl-3-(4-(7-methyl-4-((S)-3-methylmorpholino)-7-propyl-5,7-dihydrofuro[3,4-d]pyrimidin-2-yl)phenyl)urea]
Ki [1]: 2 nM
EC50 [2, 3]: 84 nM

C=CC[C@@]1(C)OCc2c(N3CCOC[C@@H]3C)nc(-c3ccc(NC(=O)NCC)cc3)nc21 [Example 85 ek^2]
Ki [1]: 2 nM
EC50 [2, 3]: 66 nM

CCNC(=O)Nc1ccc(-c2nc3c(c(N4CCOC[C@@H]4C)n2)COC3)cc1 [Example 96, (S)-1-ethyl-3-(4-(4-(3-methylmorpholino)-5,7-dihydrofuro[3,4-d]pyrimidin-2-yl)phenyl)urea]
Ki [1]: 9 nM
EC50 [2, 3]: 28 nM

CCNC(=O)Nc1ccc(-c2nc3c(c(N4[C@@H]5CC[C@H]4COC5)n2)COC3)cc1 [Example 98, 1-(4-(4-((1R,5S)-3-oxa-8-azabicyclo[3.2.1]octan-8-yl)-5,7-dihydrofuro[3,4-d]pyrimidin-2-yl)phenyl)-3-ethylurea]
Ki [1]: 8 nM
EC50 [2, 3]: 331 nM

CC1(C)OCc2c(N3CCOCC3)nc(-c3ccc(N)nc3)nc21 [Example 102, 5-(7,7-dimethyl-4-morpholino-5,7-dihydrofuro[3,4-d]pyrimidin-2-yl)pyridin-2-amine]
Ki [1]: 17 nM
EC50 [2, 3]: 159 nM

C[C@H]1COCCN1c1nc(-c2cnc(N)nc2)nc2c1COC2(C)C [Example 103, (S)-5-(7,7-dimethyl-4-(3-methylmorpholino)-5,7-dihydrofuro[3,4-d]pyrimidin-2-yl)pyrimidin-2-amine]
Ki [1]: 15 nM
EC50 [2, 3]: 41 nM

C[C@H]1COCCN1c1nc(-c2cnc(N)nc2)nc2c1CO[C@@]2(C)CCOc1ccccc1 [Example 104 gs (S), 5-((S)-7-methyl-4-((S)-3-methylmorpholino)-7-(2-phenoxyethyl)-5,7-dihydrofuro[3,4-d]pyrimidin-2-yl)pyrimidin-2-amine]
Ki [1]: 231 nM
EC50 [2, 3]: 145 nM

CC1(C)OCc2c(N3C[C@H]4C[C@@H]3CO4)nc(-c3cnc(N)nc3)nc21 [Example 105, 5-(4-((1R,4R)-2-oxa-5-azabicyclo[2.2.1]heptan-5-yl)-7,7-dimethyl-5,7-dihydrofuro[3,4-d]pyrimidin-2-yl)pyrimidin-2-amine]
Ki [1]: 88 nM
EC50 [2, 3]: 17 nM

CC1(C)OCc2c(N3C[C@H]4CC[C@@H](C3)O4)nc(-c3cnc(N)nc3)nc21 [Example 107, 5-(4-((1R,5S)-8-oxa-3-azabicyclo[3.2.1]octan-3-yl)-7,7-dimethyl-5,7-dihydrofuro[3,4-d]pyrimidin-2-yl)pyrimidin-2-amine]
Ki [1]: 10 nM
EC50 [2, 3]: 231 nM

COCC[C@]1(C)OCc2c(N3CCOC[C@@H]3C)nc(-c3ccc4nc(N)oc4c3)nc21 [Example 112 hg^1]
Ki [1]: 255 nM and 410 nM
EC50 [2, 3]: 671 nM

CC1(C)OCc2c(N3CCOCC3)nc(-c3ccc4oc(N)nc4c3)nc21 [Example 114, 5-(7,7-dimethyl-4-morpholino-5,7-dihydrofuro[3,4-d]pyrimidin-2-yl)benzo[d]oxazol-2-amine]
Ki [1]: 124 nM
EC50 [2, 3]: 2500 nM

CC1(C)OCc2c(N3CCOCC3)nc(-c3ccc4nc(N)oc4c3)nc21 [Example 115, 6-(7,7-dimethyl-4-morpholino-5,7-dihydrofuro[3,4-d]pyrimidin-2-yl)benzo[d]oxazol-2-amine]
Ki [1]: 269 nM
EC50 [2, 3]: 146 nM

CC1(C)OCc2c(N3CCOCC3)nc(-c3ccc4c(N)noc4c3)nc21 [Example 116, 6-(7,7-dimethyl-4-morpholino-5,7-dihydrofuro[3,4-d]pyrimidin-2-yl)benzo[d]isoxazol-3-amine]
Ki [1]: 17 nM
EC50 [2, 3]: 2100 nM

CC1(C)OCc2c(N3CCOCC3)nc(-c3ccc4onc(N)c4c3)nc21 [Example 117, 5-(7,7-dimethyl-4-morpholino-5,7-dihydrofuro[3,4-d]pyrimidin-2-yl)benzo[d]isoxazol-3-amine]
Ki [1]: 567 nM
EC50 [2, 3]: 1200 nM

COCC[C@]1(C)OCc2c(N3CCOC[C@@H]3C)nc(-c3ccc4onc(N)c4c3)nc21 [Example 119 hq^1]
Ki [1]: 4300 nM and 1500 nM
EC50 [2, 3]: 203 nM

C[C@H]1COCCN1c1nc(-c2ccc3c(N)noc3c2)nc2c1COC2(C)C [Example 120, (S)-6-(7,7-dimethyl-4-(3-methylmorpholino)-5,7-dihydrofuro[3,4-d]pyrimidin-2-yl)benzo[d]isoxazol-3-amine]
Ki [1]: 24 nM
EC50 [2, 3]: 39 nM

C[C@H]1COCCN1c1nc(-c2ccc3onc(N)c3c2)nc2c1COC2(C)C [Example 121, (S)-5-(7,7-dimethyl-4-(3-methylmorpholino)-5,7-dihydrofuro[3,4-d]pyrimidin-2-yl)benzo[d]isoxazol-3-amine]
Ki [1]: 390 nM
EC50 [2, 3]: 1300 nM

C[C@H]1COCCN1c1nc(-c2ccc3oc(N)nc3c2)nc2c1COC2(C)C [Example 123, (S)-5-(7,7-dimethyl-4-(3-methylmorpholino)-5,7-dihydrofuro[3,4-d]pyrimidin-2-yl)benzo[d]oxazol-2-amine]
Ki [1]: 43 nM
EC50 [2, 3]: 302 nM

COCC[C@]1(C)OCc2c(N3CCOC[C@@H]3C)nc(-c3ccc4nc(N)[nH]c4c3)nc21 [Example 124 hv^1]
Ki [1]: 24 nM and 81 nM
EC50 [2, 3]: 577 nM

CNc1nc2cc(-c3nc(N4CCOC[C@@H]4C)c4c(n3)C(C)(C)OC4)ccc2[nH]1 [Example 125, (S)-5-(7,7-dimethyl-4-(3-methylmorpholino)-5,7-dihydrofuro[3,4-d]pyrimidin-2-yl)-N-methyl-1H-benzo[d]imidazol-2-amine]
Ki [1]: 10 nM
EC50 [2, 3]: 562 nM

CC[C@H]1COCCN1c1nc(-c2cnc(N)nc2)nc2c1CCCO2 [Example 128, (S)-5-(4-(3-ethylmorpholino)-6,7-dihydro-5H-pyrano[2,3-d]pyrimidin-2-yl)pyrimidin-2-amine]
Ki [1]: 103 nM
EC50 [2, 3]: 1200 nM

Nc1ccc(-c2nc3c(c(N4C[C@H]5CC[C@@H](C4)O5)n2)CCCO3)cn1 [Example 130, 5-(4-((1R,5S)-8-oxa-3-azabicyclo[3.2.1]octan-3-yl)-6,7-dihydro-5H-pyrano[2,3-d]pyrimidin-2-yl)pyridin-2-amine]
Ki [1]: 30 nM
EC50 [2, 3]: 743 nM

Nc1ccc(-c2nc3c(c(N4[C@@H]5CC[C@H]4COC5)n2)CCCO3)cn1 [Example 132, 5-(4-((1R,5S)-3-oxa-8-azabicyclo[3.2.1]octan-8-yl)-6,7-dihydro-5H-pyrano[2,3-d]pyrimidin-2-yl)pyridin-2-amine]
Ki [1]: 32 nM
EC50 [2, 3]: 585 nM
